The values that follow are results of earlier work, collected in US20060079522A1, “Amino substituted aryloxybenzylpiperidine derivatives” (priority 2004, published 2006).

Read-outs that look alike come from different tables or passages of the source.

Data set [1] concerns MCH1 receptor. Particulars: guinea pig maternal-separation vocalization.
The target of data set [2] is T1, MCH1 receptor (Rattus norvegicus, UniProt P97639).
T1 construct: SNAP-7941, a selective MCH1 small molecule antagonist, was evaluated in several animal models; host or cells: living rats (endogenous receptor)
Particulars: rat forced-swim.

Data set [3] has as its target T1, MCH1 receptor. Particulars: rat social interaction.

T1 sequence (P97639 whole entry): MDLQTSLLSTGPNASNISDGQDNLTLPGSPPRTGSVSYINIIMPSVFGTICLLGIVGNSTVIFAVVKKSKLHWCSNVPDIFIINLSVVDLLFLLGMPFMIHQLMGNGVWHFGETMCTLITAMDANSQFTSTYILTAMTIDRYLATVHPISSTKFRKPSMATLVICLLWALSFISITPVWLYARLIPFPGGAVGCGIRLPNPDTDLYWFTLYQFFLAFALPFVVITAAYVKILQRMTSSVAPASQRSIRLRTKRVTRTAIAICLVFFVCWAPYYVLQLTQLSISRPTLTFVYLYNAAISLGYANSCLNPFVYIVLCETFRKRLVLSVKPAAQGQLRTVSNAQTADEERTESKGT

Take `COCC1=C(C(=O)OC)[C@H](c2ccc(F)c(F)c2)N(C(=O)NCCCN2CCC(c3cccc(NC(C)=O)c3)CC2)C(=O)N1` [SNAP-7941]: the “profile in behavioral model of depression and/or anxiety” value in the data set on MCH1 receptor [1] was “profile similar to clinically used anti-depressants and anxiolytics”; at MCH1 receptor [2] it was “profile similar to clinically used anti-depressants and anxiolytics”; on MCH1 receptor [3], “profile similar to clinically used anti-depressants and anxiolytics”.
